{
  "source": "patent US10034824B2",
  "about": "“Hair shaping composition” (Conopco, Inc., priority 2014, dated 2018)",
  "assay": "Hair switch volume-down test (switches dosed, combed straight, dried overnight, imaged)",
  "method": "Dark brown European wavy#6 switches of length 25 cm and weight 2 gms (from the same batch of switches), were dosed with 0.2 ml of a 2% solution of monoglucosamine adipate. Control switches were treated with water.\nAll switches were combed straight and left to dry overnight.\nWhen dry the switches were combed straight and pictures taken. […] The percentage benefit (i.e. decrease in volume) with respect to control (water) is also given.",
  "key": {"[1]": {"conditions": "0.2 ml of a 2% solution on 25 cm, 2 gms switches, combed straight, dried overnight"}},
  "data": [
    {"substance": "monoglucosamine adipate", "values": [
      {"measurement": "% benefit (decrease in volume with respect to control (water))", "setting": "[1]", "result": 8.0, "unit": "%"},
      {"measurement": "Volume (projection of the switch image on to the screen)", "setting": "[1]", "result": 13047, "unit": "mm^2"},
      {"measurement": "hair volume-down benefit", "setting": "2% solution vs water control, result in words", "result": "significant hair volume-down benefit"}
    ]}
  ]
}
